{"source": "paper PMC8150775", "about": "“Repositioning Azelnidipine as a Dual Inhibitor Targeting CD47/SIRPα and TIGIT/PVR Pathways for Cancer Immuno-Therapy” (Biomolecules, 2021)", "key": {"[1]": {"target": "T1, mouse CD47/SIRPα (Mus musculus, UniProt P97797)", "T1 construct": "purchased ACRO Biosystem SIA-M5258; host or cells: soluble protein purchased; CD47 on CHOK1-mCD47 cells (lenti-viral transfection)", "T1 sequence (P97797 32-373 limits assumed)": "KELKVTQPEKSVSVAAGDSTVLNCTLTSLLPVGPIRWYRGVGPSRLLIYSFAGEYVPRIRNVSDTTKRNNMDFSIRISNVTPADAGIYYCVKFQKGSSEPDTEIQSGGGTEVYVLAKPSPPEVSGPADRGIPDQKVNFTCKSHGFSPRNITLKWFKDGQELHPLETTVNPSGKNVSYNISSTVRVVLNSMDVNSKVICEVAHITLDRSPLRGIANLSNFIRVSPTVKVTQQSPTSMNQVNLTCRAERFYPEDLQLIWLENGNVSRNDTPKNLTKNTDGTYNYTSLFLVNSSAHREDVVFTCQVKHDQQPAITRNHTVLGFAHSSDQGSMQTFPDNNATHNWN", "assay": "Blocking assay, mouse SIRPα protein binding to CHOK1-mCD47 cells", "settings": "concentration gradient; read-out: IC50, blocking mouse CD47/SIRPα (mSirpα binding)", "method": "The abilities of small molecule inhibitors (SMIs) (purchased from TargetMol, Shanghai, China) to block the binding of SIRPα protein to CHOK1-CD47 cells or PVR protein to CHOK1-TIGIT cells were determined by flow cytometry, as previously reported. The SMIs at indicated concentrations were incubated with Fc-tagged SIRPα or PVR protein for 30 min at 4°C, followed by incubating with the indicated cells for another 30 min. Human SIRPα protein (SIA-[…], ACRO Biosystem, Beijing, China), mouse SIRPα protein (SIA-[…], ACRO Biosystem, Beijing, China), human PVR protein (CD5-[…], ACRO Biosystem, Beijing, China), and mouse PVR protein (50259-[…], Sino Biological, Beijing, China) were used. PE-conjugated anti-human IgG antibody was used to detect the Fc protein bind to cells. Cells incubated with the Fc proteins and anti-human IgG antibody without the SMIs serve as the positive control. The mean fluorescent intensity (MFI) of each sample was detected and recorded by a flow cytometry. The blocking efficacy of the SMIs was calculated as the equation: (MFI of the positive control-MFI of the SMI)/MFI of the positive control × 100%."}, "[2]": {"system": "PVR", "assay": "Flow cytometry of PVR expression on CT26 cells in vitro", "format": "cell-based, mouse", "settings": "20 μM, 24 h", "method": "(§1) Cells in good growth condition were harvested and used to detect the expression of CD47 and PVR. Antibodies anti-human CD47 APC, anti-human PVR PE, anti-mouse-CD47 APC, anti-mouse-PVR APC, and matched isotype controls were purchased from eBioscience, San Diego, CA, USA. The effects of azelnidipine on the expression of CD47 and PVR was determined by incubating CT26 cells with 20 μM of azelnidipine for 24 h, or directly analyzing the tumor cells from tumor tissues of CT26-bearing mice treated with or without azelnidipine.\n(§2) Figure S3. The effects of Azelnidipine on the expression of CD47 and PVR on CT26 tumor cells. (A and B) CT26 cells were incubated with 20 μM Azelnidipine or vehicle control for 24h, and analyzed the expression of CD47 (A) and PVR (B). The gray shaded histogram represents the isotype, the red line represents the cells treated with vehicle control, and the blue line represents the cells treated with Azelnidipine. (C and D) Tumor cells (CD45-) derived from the tumor tissues of CT26 tumor-bearing mice treated with normal saline (NS) or 5 mg/kg Azelnidipine for twelve days, were analyzed for the expression of CD47 (C) and PVR (D). n.s. means not […]\n(§3) (1 picture or pasted object on this page, not shown here)"}, "[3]": {"system": "tumor", "set-up": "method as in earlier work", "settings": "cited from earlier work"}, "[4]": {"target": "T2, human PD-1/PD-L1 (Homo sapiens, UniProt Q15116)", "T2 construct": "host or cells: CHOK1-hPD-L1 cells", "T2 sequence (Q15116 25-167 limits assumed)": "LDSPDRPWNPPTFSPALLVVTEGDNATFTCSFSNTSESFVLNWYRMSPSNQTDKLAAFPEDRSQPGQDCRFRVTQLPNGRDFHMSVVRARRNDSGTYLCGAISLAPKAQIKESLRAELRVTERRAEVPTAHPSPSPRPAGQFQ", "assay": "Blocking assay, PD-1-Fc protein binding to CHOK1-hPD-L1 cells", "settings": "100 μM", "description": "The small molecule inhibitor could not only bind to the target; most importantly, it should interfere with the receptor–ligand interactions. Subsequently, the candidate inhibitors were screened by the blocking assays with the established CD47 and TIGIT over-expressing cell lines. The test was initialed with a preliminary screening of the candidates with a single concentration (Figure 2D). Generally, the SMI blocking efficacy to the CD47/SIRPα interaction was much higher than that of the TIGIT/PVR. […] Therefore, the SMI-F11 and SMI-F17 may exert dual blocking effects in the CD47/SIRPα and TIGIT/PVR pathways. Blocking assays with a concentration gradient of the SMI were further performed to validate the preliminary screening. […] The similar blocking assays with the mouse CD47 and TIGIT over-expressing cells were also performed. […] Considering that most pairs of the immune checkpoints interact with the corresponding ligand in parallel forms, the blocking assays with the PD-1/PD-L1 interaction system was also conducted to test the specificity.\nThere are three supplemental Figures and one supplemental Table.\nSupplemental figure and legend\nFigure S1. The blocking efficacy of PD-1/PD-L1 by Azelnidipine. (A) The representative FACS histogram of blocking assay of Azelnidipine (100 μM) with CHOK1-hPD-L1 cells and PD-1-Fc protein (blue histogram). […]"}, "[5]": {"system": "CD47", "assay": "Flow cytometry of CD47 expression on CT26 cells in vitro", "format": "cell-based, mouse", "settings": "20 μM, 24 h", "method": "as §1, §2, §3"}, "[6]": {"target": "mouse PVR (Mus musculus, UniProt F6V4I7)", "sequence (F6V4I7 29-347)": "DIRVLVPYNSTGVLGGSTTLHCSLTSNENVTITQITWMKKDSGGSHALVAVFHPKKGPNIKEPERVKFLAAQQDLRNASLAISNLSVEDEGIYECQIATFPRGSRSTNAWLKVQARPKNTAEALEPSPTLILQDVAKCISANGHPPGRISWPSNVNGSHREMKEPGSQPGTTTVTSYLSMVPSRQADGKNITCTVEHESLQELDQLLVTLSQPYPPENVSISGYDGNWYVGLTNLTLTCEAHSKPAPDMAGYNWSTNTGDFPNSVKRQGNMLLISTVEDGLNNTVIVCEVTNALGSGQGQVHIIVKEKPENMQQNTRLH", "assay": "Microscale thermophoresis (MST) binding", "method": "(§4) MST assays were performed to test the affinity of SMI-F11 (azelnidipine) to the indicated protein using the Monolith NT.115 system, as previously reported. His tagged human SIRPα (SIA-H5225, ACRO Biosystem, Beijing, China), mouse SIRPα (50956-M08H, Sino Biological, Beijing, China), human PVR (CD5-H5223, ACRO Biosystem, Beijing, China), and mouse PVR (50259-M08H, Sino Biological, Beijing, China) were used. The protein was labeled with Red-NHS647 dye (NanoTemper Technologies GmhH, Munich, Germany) according to the manufacturer’s instructions. Azelnidipine was 2-fold serially diluted from 200 μM and subsequently tested. Red-NHS647 dye-labeled protein was incubated with the diluted azelnidipine, with equal volume for 5 min at room temperature; the mixture was then loaded onto standard capillaries for detection. The KD values were calculated by the analysis software (MO. Affinity Analysis, version number 2.2.4, NanoTemper Technologies GmhH, Munich, Germany)."}, "[7]": {"target": "T3, human SIRPα (Homo sapiens, UniProt P78324)", "T3 construct": "His; purchased ACRO Biosystem SIA-H5225", "T3 sequence (P78324 31-504)": "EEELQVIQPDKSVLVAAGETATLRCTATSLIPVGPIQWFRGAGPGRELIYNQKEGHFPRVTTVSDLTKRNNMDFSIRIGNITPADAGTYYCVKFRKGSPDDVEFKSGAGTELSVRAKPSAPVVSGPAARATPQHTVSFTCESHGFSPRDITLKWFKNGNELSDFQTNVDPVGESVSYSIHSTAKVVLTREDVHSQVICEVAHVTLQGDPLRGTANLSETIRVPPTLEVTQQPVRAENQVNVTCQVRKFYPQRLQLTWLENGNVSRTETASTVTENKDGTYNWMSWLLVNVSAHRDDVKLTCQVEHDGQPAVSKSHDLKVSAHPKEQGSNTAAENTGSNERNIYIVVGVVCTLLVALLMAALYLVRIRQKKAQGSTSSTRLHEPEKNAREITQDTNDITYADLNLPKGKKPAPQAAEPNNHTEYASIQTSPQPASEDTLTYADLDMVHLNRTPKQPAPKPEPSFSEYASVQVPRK", "assay": "Microscale thermophoresis (MST) binding", "method": "as §4"}, "[8]": {"target": "T4, human PVR (Homo sapiens, UniProt P15151)", "T4 construct": "His; purchased ACRO Biosystem CD5-H5223", "T4 sequence (P15151 21-417)": "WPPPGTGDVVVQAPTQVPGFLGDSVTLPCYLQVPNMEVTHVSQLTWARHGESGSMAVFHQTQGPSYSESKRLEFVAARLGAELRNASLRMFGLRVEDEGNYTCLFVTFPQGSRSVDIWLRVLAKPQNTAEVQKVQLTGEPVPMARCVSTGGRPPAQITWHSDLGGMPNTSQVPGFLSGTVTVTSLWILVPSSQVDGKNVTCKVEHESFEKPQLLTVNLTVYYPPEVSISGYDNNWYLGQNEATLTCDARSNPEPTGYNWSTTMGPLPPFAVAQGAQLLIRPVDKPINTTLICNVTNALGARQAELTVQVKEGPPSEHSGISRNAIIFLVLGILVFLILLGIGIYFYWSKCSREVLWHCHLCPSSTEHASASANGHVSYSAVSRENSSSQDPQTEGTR", "assay": "Microscale thermophoresis (MST) binding", "method": "as §4"}, "[9]": {"target": "T5, mouse SIRPα (Mus musculus, UniProt P97797)", "T5 construct": "His; purchased Sino Biological 50956-M08H", "T5 sequence (P97797 32-513)": "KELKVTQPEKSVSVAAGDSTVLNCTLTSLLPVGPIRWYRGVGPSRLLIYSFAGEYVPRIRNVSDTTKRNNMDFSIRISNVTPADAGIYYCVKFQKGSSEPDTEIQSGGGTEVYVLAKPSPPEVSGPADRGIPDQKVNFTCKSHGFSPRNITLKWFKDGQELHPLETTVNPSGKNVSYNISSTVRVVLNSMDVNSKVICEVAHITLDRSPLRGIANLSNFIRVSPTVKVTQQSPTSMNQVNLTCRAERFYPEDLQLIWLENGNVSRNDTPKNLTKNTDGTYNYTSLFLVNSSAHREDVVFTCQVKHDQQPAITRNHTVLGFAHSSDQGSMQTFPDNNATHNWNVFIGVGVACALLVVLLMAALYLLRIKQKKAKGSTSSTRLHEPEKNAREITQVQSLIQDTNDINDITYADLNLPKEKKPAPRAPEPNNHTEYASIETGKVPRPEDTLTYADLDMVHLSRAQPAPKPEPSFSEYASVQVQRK", "assay": "Microscale thermophoresis (MST) binding", "method": "as §4"}}, "data": [{"smiles": "CC1=C(C(=O)OC(C)C)C(c2cccc([N+](=O)[O-])c2)C(C(=O)OC2CN(C(c3ccccc3)c3ccccc3)C2)=C(N)N1", "note": "(stereo not drawn) [Azelnidipine]", "values": [{"measurement": "IC50", "setting": "[1]", "value": "~37", "unit": "µM"}, {"measurement": "expression of PVR on CT26 cells", "setting": "[2]", "value": "slightly inhibit"}, {"measurement": "tumor growth in vivo", "setting": "[3]", "value": "significantly inhibit the tumor growth in vivo"}, {"measurement": "blocking of human PD-1/PD-L1 interaction", "setting": "[4]", "value": "could not block"}, {"measurement": "expression of CD47 on CT26 cells", "setting": "[5]", "value": "without suppressing"}, {"measurement": "Kd", "setting": "[6]", "value": 13.3, "unit": "µM"}, {"measurement": "Kd", "setting": "[7]", "value": 5.37, "unit": "µM"}, {"measurement": "Kd", "setting": "[8]", "value": 6.48, "unit": "µM"}, {"measurement": "Kd", "setting": "[9]", "value": 3.75, "unit": "µM"}]}]}
